Experimental data published in patent US6605469B1, “Nucleic acid molecule encoding a cytochrome P-450 hydroxylase in brassinosteroid biosynthesis in plants” (Korea Kumho Petrochemical Co., Ltd., priority 2000, dated 2003).

How the values were obtained:
[1] = test system: anti-sense pra2 transgenic plants; assay: Complementation of dark-grown anti-sense pra2 transgenic plants with phytohormones and BR intermediates (hypocotyl length); type: in vivo, Nicotiana tabacum; conditions: for stimulatory effect on hypocotyls as % of the BL effect / rescue of the dwarfish hypocotyls in BR feeding experiment: anti-sense pra2 transgenic plants grown 5 days in complete darkness; for stimulatory effect on hypocotyls as % of the BL effect: 6-OHCS 10^-8 M, 6-deoxoCS 10^-8 M; for rescue of the dwarfish hypocotyls in BR feeding experiment: CS 10^-8 M
Protocol: Seeds of Nicotiana tabacum (Petit Havana SR1) were germinated and grown in sterile condition at 25° C. with a 16-hour photoperiod. The Arabidopsis thaliana ecotype Columbia (Col-0) was germinated and grown on 0.5×Murashige and Skoog medium containing 1% agar and Suc. All Arabidopsis cultures were maintained in a controlled environment culture room at 22° C. with the humidity of 70% and the photoperiod of 12 hours. Feeding experiments were also performed in the same culture conditions.
Plant growth regulators tested were BR, GA, auxin, cytokinine, abscisic acid, and salicylic acid. The BR hormones included the most oxidized brassinolide (BL, 10^−8 M) and various intermediates, such as campestanol (CN, 10^−6 M), 6-oxocampestanol (6-oxoCN, 10^−6 M), 6-deoxocathasterone (6-deoxoCT, 10^−6 M), cathasterone (CT, 10^−6 M), 6-deoxoteasterone (6-deoxoTE, 10^−6 M), teasterone (TE, 10^−6 M), 6-deoxotyphasterol (6-deoxoTY, 10^−7 M), typhasterol (TY, 10^−7 M), 6-deoxocastasterone (6-deoxoCS, 10^−8 M), 6α-hydroxycastasterone (6-OHCS, 10^−8 M), and castasterone (CS, 10^−8 M). Each BR intermediates were used at the concentrations as indicated in parentheses. […] Plants were germinated and grown in the presence of each BR intermediate for 4-7 days either in the light or in complete darkness. Hypocotyl lengths of 30-50 plants in each treatment were measured and averaged.

DDWF1 [2] = assay: Substrate specificity of recombinant DDWF1 with BR intermediates, HPLC analysis; type: biochemical, pea; conditions: reaction mixtures analyzed on HPLC
Protocol: For HPLC analysis, BR intermediates were incubated with the DDWF1 as with testosterone, and the mixture was analyzed on the Waters 626 LC System and Photodiode Array Detector (Waters, Milford, Mass.). The reverse-phase Supelcosil LC-18 (250×4.6 mm, Supelco, Pa., USA) was used at a flow rate of 2 ml/min. The solvents used were 45% acetonitrile for the first 20 min, a gradient of 45% to 100% for the next 20 min, and pure acetonitrile for the last 10 min.

DDWF1 [3] = assay: DDWF1 activity assay with [4-14C]testosterone, TLC analysis; type: biochemical, pea; conditions: N-terminal truncated recombinant DDWF1
Protocol: Forty μl of the [4-^14C]testosterone (Amersham-Pharmacia, Cat. No. CFA129, 193 μCi/mg) was aliquoted, and the solvent was evaporated under gentle stream of N2 gas. Yeast microsomal fractions were prepared as described (Pompon et al., 1996). Thirty μg of microsomal fraction, 5 μg of Pra2 protein, and various amounts of the recombinant DDWF1 were used for each reaction, each with 175 μl of the reaction buffer (1M HEPES, pH 7.4, 0.1 mM EDTA, 0.5 mM GTP, 10 mM MgCl2). The mixture was transferred to the tube containing the lyophilized testosterone and incubated for 10 min at 37° C. Twenty-five μl of NADPH solution, prepared in the same reaction buffer, was then added to the mixture to a final concentration of 1 mM. The total mixture was further incubated for 30 min at 37° C. and terminated by adding 1 ml of ethyl acetate and vortexing for 30 sec. After centrifugation for 4 min at 15000×g, the upper layer was recovered and evaporated in chemical hood overnight. The dry pellet was dissolved in 20 μl of ethyl acetate, spotted on TLC on Silicagel 60 F254 (20×20 cm, Merck, Darmstadt, Germany), and developed in dichloromethane/acetone (4:1 by volume) and then in chloroform/ethyl acetate/ethanol (4:1:0.7 by volume) as described (Waxman, 1991).

[4] = molecular target: Q79L Pra2-GST fusion protein (constitutively active form) [GST: P08515]
[5] = molecular target: T34N Pra2-GST fusion protein (dominant negative form) [GST: P08515]
[6] = molecular target: wild type Pra2-GST fusion protein [GST: P08515]

For CC(C)[C@H](C)[C@@H](O)[C@H](O)[C@@H](C)[C@H]1CC[C@H]2[C@@H]3C[C@H](O)[C@H]4C[C@H](O)[C@H](O)C[C@]4(C)[C@H]3CC[C@]12C [6-OHCS, 6α-hydroxycastasterone], the “stimulatory effect on hypocotyls as % of the BL effect” value [1] was “about 50%”.

In the case of CC(C)[C@H](C)[C@@H](O)[C@H](O)[C@@H](C)[C@H]1CC[C@H]2[C@@H]3CC[C@H]4C[C@H](O)[C@H](O)C[C@]4(C)[C@H]3CC[C@]12C [6-deoxoCS, 6-deoxocastasterone], the “stimulatory effect on hypocotyls as % of the BL effect” value [1] is reported as ~60%.

With CC(C)[C@H](C)[C@@H](O)[C@H](O)[C@@H](C)[C@H]1CC[C@H]2[C@@H]3COC(=O)[C@H]4C[C@H](O)[C@H](O)C[C@]4(C)[C@H]3CC[C@]12C [BL, brassinolide] the “rescue of the dwarfish hypocotyls in BR feeding experiment” value ([1]; BL 10^-8 M) was “completely rescued”, the “rescue of the dark-specific dwarfish hypocotyls” value ([1]; anti-sense pra2 transgenic tobacco grown in the dark, phytohormones at physiological concentrations, BL 10^-8 M) was “completely rescued” and the “growth kinetics of transgenic versus control seedlings in the presence of BL” value ([1]; dark-grown seedlings, hypocotyl length over time, FIG. 4C) was “became similar”. The “BL effect on transgenic plants grown in the light” value ([1]; transgenic plants grown in the light) was “No BL effects”.

With CC(C)[C@H](C)[C@@H](O)[C@H](O)[C@@H](C)[C@H]1CC[C@H]2[C@@H]3CC(=O)[C@H]4C[C@H](O)[C@H](O)C[C@]4(C)[C@H]3CC[C@]12C [CS, castasterone] the “rescue of the dwarfish hypocotyls in BR feeding experiment” value ([1]; BL 10^-8 M) was “completely rescued” and the “conversion by recombinant DDWF1 (substrate specificity)” value (DDWF1 [2]) was “not the substrate”.

CC(C)[C@H](C)[C@@H](O)[C@H](O)[C@@H](C)[C@H]1CC[C@H]2[C@@H]3CC(=O)[C@H]4C[C@H](O)CC[C@]4(C)[C@H]3CC[C@]12C [TY, typhasterol] was tested, and the “conversion by recombinant DDWF1 (substrate specificity)” value (DDWF1 [2]) was “converted to CS”.

C[C@]12CC[C@H]3[C@@H](CCC4=CC(=O)CC[C@@]43C)[C@@H]1CC[C@@H]2O [Testosterone] was tested, and the “substrate for DDWF1” value (DDWF1 [3]) was “not the substrate”.

With gibberellins [GA] the “stimulatory effect on hypocotyls relative to that by BL” value ([1]; anti-sense pra2 transgenic tobacco grown in the dark, phytohormones at physiological concentrations) was 20-30%.

B1: recombinant N-terminal truncated DDWF1, soluble form expressed in E. coli (protein)
chain: MALQVLTLPSWVTLFTTFAILLLFSRRLRRRQYNLPPGPKPWPIIGNFNLIGTLPHQSLHGLTQKYGPIMHLWFGSKRVVVGSTVEMAKAFLKTHDATLAGRPKFSAGKYTTYNYSDITWSQYGPYWRQARRMCLLELFSAKRLESYEYIRKQELHVFLHELFDSRNKTILLKDHLSSLSLNVISRMVLGRKYLEKVENSIISPDEFKNMLDELFLLNGILNIGDFIPWIHFLDFQGYVKRMKVLSKKFDGFMEHVLEEHIERRKGVKDYVAKDMVDVLLQLAEDPDLEVKLERHGVKAFTQDLIAGGTESSAVTVEWAISELIRKPEIFKKATEELDRVIGRERWVEEKDIANLPYVYAIAKETMRLHPVAPMLVPREAREDCNINGYDIPKGSLILVNTWTIARDSNVWDNPNEFMPERFLGKDIDVKGHDYELLPFGAGRRMCPGYPLGIKVIQSSLANLLHGFNWRLSDDVKKEDLNMEEIFGLSTPKKIHPG
With B1 the “conversion efficiency (DDWF1 hydroxylase activity on a testosterone intermediate, TLC)” value (from here on “conversion efficiency”) [4] was “the conversion efficiency was slightly higher with the wild type and Q79L than with the T34N”, the “conversion efficiency” value [5] was “the conversion efficiency was slightly higher with the wild type and Q79L than with the T34N” and the “conversion efficiency” value [6] was “the conversion efficiency was slightly higher with the wild type and Q79L than with the T34N”.
